Experiment: Human HepG2 cell viability assay in 384 well format
Type: toxicity, cell-based
Design: dose 125 nL, time 70.5 hour; concentration not given beside the values
Conditions: HepG2 cells, read-out: Inhibition

SMILES	cytotoxicity at 70.5 h [%]
COc1cccc(CNc2ccc(F)c(Cl)c2)c1O	-4.8
CC1c2ncc(COCC3CCOCC3)n2CCN1S(C)(=O)=O (stereo not drawn)	-1.95
Cn1c2c(ccc1=O)CC(NC(=O)Cc1ccsc1)CC2 (stereo not drawn)	-2.49
O=S(=O)(C1CC1)N1CCc2ncnc(-c3ccsc3)c2CC1	-0.114
O=C(CC1CC1)NC1CCc2c(ccc(=O)n2CC2CC2)C1 (stereo not drawn)	0.842
FC1(F)CCNCC12CCN(c1ncccn1)C2 (stereo not drawn)	-4.34
Cn1cc(CN2C[C@@H]3COC[C@]3(C(=O)N3CCCO3)C2)cn1	-1.04
CCOCc1cncc2c1CCN(S(=O)(=O)c1cccc(C)c1)C2	-4.1
O=S(=O)(C1CC1)N1CCc2ncnc(-c3ccc(F)cc3)c2CC1	0.906
CCN1CC[C@]2(CN(C(=O)C3CCOCC3)C[C@H]2c2ccccc2)C1=O	0.473
c1cc(CN2CCO[C@@H]3CNC[C@@H]32)co1	3.81
CNC(=O)N1CCN(C(=O)N(C)C)CC2(CC(=O)N(C)C2)C1 (stereo not drawn)	-20
COCC(=O)N1CC[C@H]2N(C)CC[C@@]2(C(=O)Nc2ccccc2)CC1	-20
O=C(c1cccnc1)N1CCN(CC2CC2)c2ncccc2C1	0.755
COCC1COCCC12CCN(C(=O)COc1ccccc1)CC2 (stereo not drawn)	-14.3
Cc1noc([C@@H]2CC[C@@H]3[C@@H](CCN3S(C)(=O)=O)O2)n1	-16.7
CCOCc1cnc2n1CCN(C(=O)C1=CCCC1)C2C (stereo not drawn)	-2.23
CCS(=O)(=O)N1CC[C@H]2O[C@H](c3nc(C)no3)CC[C@H]21	-14.9
CCc1ccc(C(=O)N2CC(C(=O)NC(C)C)C3(CCOCC3)C2)cc1 (stereo not drawn)	-20.6
CC(C)CCN1C[C@H]2CCN(C(=O)NC3CCCC3)CC[C@H]2S1(=O)=O	-23.9
COc1ncccc1C(=O)N1CC[C@H]2C[C@@H](c3ccncn3)O[C@@H]2C1	-18
Cc1nc(N2CCCC2)nc2c1CCN(C(=O)C1CCCCC1)CC2	-0.729

SMILES	cytotoxicity at 70.5 h [%]
COc1ncccc1C(=O)N1CC[C@H]2C[C@H](c3ccncn3)O[C@@H]2C1	-14.1
O=C(c1ccccc1)N1CC[C@H]2C[C@H](c3nccs3)O[C@@H]2C1	-11.2
CCN1C[C@H]2CCN(C(=O)NC)CC[C@H]2S1(=O)=O	49
COc1ncccc1C(=O)N1CC[C@H]2C[C@H](c3noc(C)n3)O[C@@H]2C1	51.3
Cn1cc(CN2CC[C@H]3OCC[C@@H](C(=O)Nc4cnccn4)[C@@H]3C2)cn1	50.6
O=C1CC[C@H]2[C@H](CCN2C(=O)N2CCCC2)N1Cc1ccncc1	50.7
CNC(=O)c1cc2c(nc1NCC1CC1)CCN(c1ncccn1)CC2	-20.8
CC(C)NC(=O)N1CCN(C(=O)NC(C)C)CC2(CNC(=O)C2)C1	2.71
CCNc1ncc2c(n1)CN(c1cccc(OC)c1)C2=O	-7.43
Cc1nn(C)c2cnn(Cc3ccc(C(=O)N4CCCCC4)o3)c12	-5.62
Cc1nn(C)c2cnn(Cc3ccc(C(=O)NCC4CCCO4)o3)c12 (stereo not drawn)	-5.42
Cc1nn(C)c2cnn(Cc3ccc(C(=O)NC4CC4)o3)c12	-1.57
CCn1nc(C)c2c1cnn2CCNS(=O)(=O)Cc1ccccc1	11.3
O=C(CCn1ncc2c(Cl)cccc21)NCC1CC1	-5.33
O=C(CCn1ncc2c(Cl)cccc21)NCCCO	-5.48
CCn1nc(C)c2ncnc(N(C)C)c21	-3.05
CCN(CC)c1ncnc2c(C)nn(CC)c12	-0.883
Cc1ccc(NC(=O)CN2CCOCC2)c(F)c1	21.2
CCn1nc(C)c2nc(C)nc(NCCc3ccc(C)cc3)c21	34.1
CCc1nc(Nc2ccc(C(=O)NC)cc2)c2c(n1)c(C)nn2CC	-16.9
CCCc1nc(N(C)Cc2ccco2)c2c(n1)c(C)nn2CC	-3.19
CCCc1nc(NCCc2ccccc2)c2c(n1)c(C)nn2CC	-16.2

SMILES	cytotoxicity at 70.5 h [%]
Cc1nn(C)c2c(N3CCC(C)CC3)nc(C3CC3)nc12	-11.4
Cc1nn(C)c2c(N3CCCC3)nc(C3CC3)nc12	-11.4
Cc1nn(C)c2c(NCc3ccc(F)cc3)nc(C3CC3)nc12	-5.76
Cc1nn(C)c(C)c1CN(C)c1nc(C2CC2)nc2c(C)nn(C)c12	29.7
CCn1nc(C)c2nc(C(C)C)nc(N(C)Cc3ccco3)c21	-17
CCn1nc(C)c2nc(C(C)C)nc(NCc3ccccn3)c21	0.25
CCN(CC)CCNc1nc(C(C)C)nc2c(C)nn(CC)c12	-2.61
CC(C)n1cc(S(=O)(=O)N2CCSCC2)cn1	-4.27
CSc1ncnc(NCc2ccccc2F)c1C#N	23.1
COCCCNC(=O)c1nnsc1-c1ccccc1	-14.7
COCCNC(=O)c1cc(OC)c2ccoc2c1	-1.33
COCCCNC(=O)c1cc(OC)c2ccoc2c1	22.5
CCN(CC)CCNC(=O)c1cc(OC)c2ccoc2c1	-5.95
CSCc1cccc(S(=O)(=O)Nc2cc(C)on2)c1	3.33
CCN(CC)c1nc(C)cc(C(=O)Nc2ccc(Br)cc2)n1	3.54
Cc1nc2[nH]cnc(NCCN3CCCC3)c-2n1	-9.67
CCn1nccc1CNc1[nH]cnc2nc(C)nc1-2	27.9
Cc1nc2c(N3CCN(Cc4ccccc4)CC3)nc(N)nc2n1C	0.226
CCn1ccc(NC(=O)C2CCC(=O)N2Cc2ccc(C)o2)n1 (stereo not drawn)	-4.94
Cc1cc(C(=O)NCc2c(C)nn(C)c2C)nc(N2CCCC2)n1	-3.65
Cc1cc(C(=O)NCc2cccs2)nc(N2CCCC2)n1	-6.4
CCOCc1cccc(S(=O)(=O)Nc2ncc(C)s2)c1	3.25

SMILES	cytotoxicity at 70.5 h [%]
Cc1nc(N2CCOCC2)ncc1-c1cc(O)nc(N2CCCCC2)n1	14.1
Cc1cc(C)n(C(=O)c2cn(C)nc2S(=O)(=O)N2CCSCC2)n1	-7.57
CCn1cc(C(=O)n2nc(C)cc2C)c(S(=O)(=O)N2CCCCC2)n1	-3.56
CSc1ccc(-c2noc(CN(Cc3ccccc3)C(C)C)n2)cc1	-6.81
CCCN(CCC)C(=O)Cn1c(SC)nc2ccsc2c1=O	-0.333
CSc1nc2ccsc2c(=O)n1CC(=O)N(C)C1CCCCC1	-5.09
Cc1ccn(-c2ccnc(N3CCC(N4CCCCC4)CC3)n2)n1	-13.2
Cc1ccn(-c2ccnc(N3CCSCC3)n2)n1	-0.283
CC(C)N1CCC2(CC1)C(=O)N(c1cccnc1)c1ccc(F)cc12	-0.653
Cc1ccc(N2C[C@H]3CCC[C@@H](CN4CCOCC4)[C@H]3C2)nn1	-1.56
Cc1ccc(N2C[C@H]3CCC[C@@H](CN(C)C)[C@H]3C2)nn1	-0.102
Cc1occc1C(=O)N1C[C@@H](OCc2cccnc2)[C@H]2OCCC[C@@H]21	-21.3
Cc1cccc(CN2CC[C@@H]3[C@@H]2CCN3C(=O)c2cc(C)on2)n1	-12.4
COc1ccc(CN2C[C@@H]3COC[C@@H](CC(=O)N4CCCC4)[C@@H]3C2)cc1	-19.9
Cc1ncsc1CN1C[C@@H]2COC[C@]2(CNC(=O)c2ccccc2)C1	-7.33
Cn1cc(CN2C[C@@H]3COC[C@]3(CNC(=O)c3ccccc3)C2)cn1	-13.5
Cc1ccc(CN2C[C@@H]3COC[C@@H](CC(=O)N4CCOCC4)[C@@H]3C2)s1	-11
COC1COC2(CCN(Cc3ccccc3F)CC2)C1 (stereo not drawn)	-8.4
O=C(C[C@@H]1COC[C@H]2CN(Cc3ccccc3)C[C@@H]12)N1CCCC1	-14.4
CN(C)C(=O)C1OC2(CCN(c3ncc(F)cn3)CC2)c2ccccc21 (stereo not drawn)	3.5
CS(=O)(=O)N1CCC2(CC1)COC(COc1ccccn1)C2 (stereo not drawn)	-12.3
COC[C@@H]1CCC[C@]12CN(CCc1ccccc1)CCO2	-12.8

SMILES	cytotoxicity at 70.5 h [%]
Cn1cc(N2CC3(CCN(CC4CCC4)CC3)OCC2=O)cn1	-7.64
Cn1cc(N2CC3(CCN(Cc4nccs4)CC3)OCC2=O)cn1	39.5
CCS(=O)(=O)N1CCOCC2(CCN(c3ccccn3)C2)C1 (stereo not drawn)	-11.4
CS(=O)(=O)N1CCOCC2(CCN(c3ccccn3)C2)C1 (stereo not drawn)	-10.4
CC(=O)CN1CC2(CCNCC2)COc2ccccc2S1(=O)=O	-12.2
CNC(=O)CN1CCOCC2(C1)CN(C(=O)CC(C)C)CCO2 (stereo not drawn)	-4.88
COC(=O)CN1CC2(CCNCC2)COc2ccccc2S1(=O)=O	6.67
O=C(N1CCCO1)[C@]12COC[C@H]1CN(Cc1cccnc1)C2	-7.03
Cn1nccc1-c1ncc2c(c1C(=O)O)CCN(Cc1cccnc1)C2	-2.63
COCCN1CCCC12CCN(Cc1cncn1C)CC2	-1.01
COc1ccc(CN2C[C@H]3CCC[C@@H](CN(C)C)[C@H]3C2)cn1	-2.35
CO[C@H]1CCN(S(=O)(=O)N(C)C)[C@@H]2CN(Cc3cccnc3)C[C@H]12	-5.31
CCS(=O)(=O)N1CC[C@H](OC)[C@H]2CN(Cc3ccncc3)C[C@H]21	-3.99
Cc1noc(C)c1CN1C[C@@H](OCc2ccccn2)[C@H]2OCCC[C@H]21	-16.3
CC(C)CN1CCC(c2nc3ccc(NC(C)C)cn3n2)CC1	-13.1
CO[C@@H]1CCN(Cc2ccoc2)[C@@H]2CN(Cc3ccco3)C[C@@H]21	-5.98
c1cncc(OCc2noc3c2CN(Cc2ccco2)CC3)c1	-17.4
N#Cc1cccc(CN2CCn3cc(Cn4cccn4)nc3C2)c1	-16
CCN(CC)c1ncnc2c1CCN(C(=O)Cc1ccccn1)CC2	-1.31
Cn1ccnc1CN1C[C@H](N2CCOCC2)[C@@H]2OCCC[C@@H]21	-3.14

From ChEMBL document CHEMBL3507680, “University of Dundee, Gates Library screen for HepG2 cell viability”
